# In PMC7497692 (Investigational New Drugs, 2020):
# Like-named read-outs stand apart in the source and are kept apart here.
# Experiments:
# [1] = cited from earlier work
# [2] = Unbound fraction of tepotinib in plasma, ex vivo equilibrium dialysis (part A); type: in vitro ADME, human healthy male volunteers; details: male, human, 498 mg
# Procedure: (§1) Participants were hospitalized from day 1 to day 16 of the study, and further assessed on days 19, 22, and 25 (trial end). […] Pre-dose feces and urine samples were collected on day 1 and day 2, respectively. Urine was collected at 4- to 12-h intervals on day 1 and every 24 h thereafter up to day 16. Feces were collected every 24 h up to day 16. Provision was made to collect further samples up to day 39 if >1% of the administered dose was detectable in the total (urine and feces) excreta per day on two consecutive measurements.
# Plasma (300 μL) was dialyzed against 100 mM sodium phosphate buffer (pH 7.4) in an orbital shaker at 37 °C for 18 h. The deuterated internal standard [^2H]-MSC2156119A and 100 mM sodium phosphate buffer (pH 7.4) were added to 5 μL of the dialyzed samples and centrifuged. Supernatant (30 μL) was diluted with acetonitrile/water (50 + 50, v/v) and centrifuged, and 5–20 μL aliquots were injected onto an XBridge C18 column (2.1 × 20 mm; 5 μm; Waters, Milford, Massachusetts, USA). Separation was carried out using a mobile phase gradient (eluent A: 5 mM ammonium bicarbonate in water; eluent B: 5 mM ammonium bicarbonate in methanol) with a flow rate of 1.2 mL/min. Mass spectrometric detection of tepotinib and its internal standard was performed as described above. The LLOQ was 0.015 ng/mL in plasma dialysates and 1.00 ng/mL in plasma. Calibration standards between 0.015 and 30.0 ng/mL (plasma dialysates), and between 1.00 ng/mL and 1000 ng/mL (plasma) were calculated by weighted (1/x^2) quadratic regression analysis, respectively.
# P-glycoprotein = system: P-glycoprotein; set-up: method as in earlier work; details: cited from earlier work
# [3] = Oral PK of tepotinib and total radioactivity in plasma and blood (part A); type: in vivo, human healthy male volunteers; details: min–max, n=6
# Procedure: as §1
# In brief, the isotopically labeled internal standard [^2H]-MSC2156119A was added to 20 μL K2-ethylenediaminetetraacetic acid (EDTA) plasma. […] Samples were centrifuged and 10 μL aliquots of the supernatant were injected onto an Acquity Charged Surface Hybrid™ (CSH) C18 column (2.1 × 50 mm; […]; Waters, Milford, Massachusetts, USA). Separation was carried out using a mobile phase gradient (eluent A: water/formic acid [100 + 1, v/v]; eluent B: acetonitrile/formic acid [100 + 1, v/v]) with a flow rate of 0.6 mL/min. […] The lower limit of quantification (LLOQ) was 5.00 ng/mL, and the calibration standard responses were linear over the range between 5.00 and 2500 ng/mL using a weighted (1/x^2) linear regression.
# Total radioactivity in blood, plasma, urine, and feces samples, and quick counts in urine and feces samples were determined at the bioanalytical laboratory of PRA (Assen, The Netherlands) using liquid scintillation counting (LSC). Scintillation cocktail Ultima Gold™ (5 mL; Perkin Elmar, Waltham, Massachusetts, USA) was directly spiked into 250 μL plasma and 1000 μL urine samples, respectively, whereas 300 μL aliquots of blood samples were solubilized and decolorized before adding 18 mL of the scintillation cocktail prior to LSC. Feces samples were (quantitatively) homogenized with one or two weight equivalents of water, and an accurately weighted aliquot of approximately 500 mg of the homogenate was dried at 50 °C for at least 3 h. […]
# The maximum plasma concentration (Cmax) and time to reach maximum concentration (tmax) were derived directly from the plasma concentration–time data. […] The area under the plasma concentration–time curve from 0 to t (last measurable concentration; AUC0–t) was calculated using a mixed log–linear trapezoidal method. […] Amounts excreted in urine, feces, and total (urine + feces) were calculated as the sum of amounts (concentration multiplied by volume) for each collection from time 0 to time t. […] Total body clearance (CL) and apparent body clearance (CL/f) were determined by dose/AUC0–∞, and total volume of distribution (Vz) and apparent volume of distribution (Vz/f) were calculated by dose/(AUC0–∞*λz) after IV and oral administration, respectively. […]
# [4] = tepotinib in plasma, median, single oral 498 mg capsules
smiles,measurement,setting,value
CN1CCC(COc2cnc(-c3cccc(Cn4nc(-c5cccc(C#N)c5)ccc4=O)c3)nc2)CC1 [Tepotinib],main binding partners in plasma,[1],human serum albumin and α-acid glycoprotein
same,unbound fraction of tepotinib in human plasma,"[1]; in vitro, concentration range 0.3–10 μM",1.6–3.4%
same,fraction unbound at 18 h,"[2]; pH 7.4, ex vivo, 4–24 h after oral administration, read-out: highest free fraction observed in individual participants",0.0325
same,fraction unbound at 18 h,"[2]; pH 7.4, ex vivo, 4–24 h after oral administration, read-out: lowest free fraction observed in individual participants",0.0165
same,fraction unbound at 18 h,"[2]; pH 7.4, unbound fraction of tepotinib in plasma, median values, ex vivo, range of medians at 4, 8, 12 and 24 h after oral administration",0.018 to 0.024
same,P-glycoprotein substrate status,P-glycoprotein,substrate of the drug efflux transporter P-glycoprotein
same,t½,"[3]; tepotinib in plasma, geometric mean (geometric CV%), single oral 498 mg capsules",33 h
same,tlag,[3]; [4],2 h
same,tmax,[3]; [4],9 h
same,tlag,"[3]; total radioactivity in plasma, median, oral part A",2.5 h
